Source: patent publication US20090068299A1

Experiments:
ERβ [1] = target: T1, ERβ (Homo sapiens, UniProt Q92731); settings: in the presence of ERβ
ERβ [2] = target: T1, ERβ; experiment: Repression of TNF-α activation of TNF-RE tkLuc in U2OS cells with ERβ; assay type: cell-based; set-up: expressed in transfected cells
TNF-RE tkLuc = experiment: Effect of antiestrogens on TNF-RE tkLuc; assay type: cell-based, human; settings: for effect on the repression induced by E2: TNF-RE tkLuc; for activation of TNF-RE tkLuc: antiestrogens, in contrast to E2
ERβ [3] = target: T1, ERβ; experiment: ERE-tk-Luc luciferase activation in U2OS cells with ERβ; assay type: cell-based; set-up: expressed in transfected cells; host or cells: U2OS (human osteosarcoma); settings: competition
[4] = tested on: estrogen receptor-positive breast cancer; settings: five years of therapy; cited from earlier work
[5] = tested on: primary invasive breast cancer; settings: women at high risk for breast cancer; cited from earlier work

T1 sequence (Q92731 whole entry): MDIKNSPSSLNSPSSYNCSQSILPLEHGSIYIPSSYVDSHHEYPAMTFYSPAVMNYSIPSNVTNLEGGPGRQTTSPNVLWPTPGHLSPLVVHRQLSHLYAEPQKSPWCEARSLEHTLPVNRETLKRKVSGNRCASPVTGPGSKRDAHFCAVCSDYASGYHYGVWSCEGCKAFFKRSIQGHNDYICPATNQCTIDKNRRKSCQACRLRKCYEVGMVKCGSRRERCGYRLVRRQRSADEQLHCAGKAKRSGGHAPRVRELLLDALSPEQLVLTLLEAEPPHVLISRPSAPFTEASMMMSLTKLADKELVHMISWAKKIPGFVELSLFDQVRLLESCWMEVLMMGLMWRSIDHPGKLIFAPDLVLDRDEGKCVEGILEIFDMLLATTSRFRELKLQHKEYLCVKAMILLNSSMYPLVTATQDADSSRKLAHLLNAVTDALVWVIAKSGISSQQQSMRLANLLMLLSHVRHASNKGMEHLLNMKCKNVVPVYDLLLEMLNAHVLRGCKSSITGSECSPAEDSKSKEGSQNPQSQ

Structure (SMILES) | repression of TNF-α activation of TNF-RE tkLuc (ERβ [1]) | repression of TNF-α activation of TNF-RE (ERβ [2]) | effect on the repression induced by E2 (TNF-RE tkLuc) | activation of TNF-RE tkLuc (TNF-RE tkLuc) | stimulatory effect of Pueraria lobata on the ERE with ERβ in the presence of the SERM antagonist (FIG. 6) (ERβ [3]) | reduction of mortality from breast cancer [4] | reduction of the risk of recurrences [4] | reduction of the risk of primary invasive breast cancer [5]
C[C@]12CC[C@@H]3c4ccc(O)cc4CC[C@H]3[C@@H]1CC[C@@H]2O [E2, estradiol] | 60-80% | 100% |  |  |  |  |  | 
C[C@]12CC[C@@H]3c4ccc(O)cc4C[C@@H](CCCCCCCCC[S+]([O-])CCCC(F)(F)C(F)(F)F)[C@H]3[C@@H]1CC[C@@H]2O (stereo partly drawn) [ICI 182, 780] |  |  | abolished the repression induced by E2 | 2 fold |  |  |  | 
O=C(c1ccc(OCCN2CCCCC2)cc1)c1c(-c2ccc(O)cc2)sc2cc(O)ccc12 [raloxifene] |  |  | abolished the repression induced by E2 | 2 fold | inhibited |  |  | 
CC/C(=C(\c1ccccc1)c1ccc(OCCN(C)C)cc1)c1ccccc1 [tamoxifen] |  |  | abolished the repression induced by E2 | 2 fold |  | 22% | 42% | 49%
